Values quoted from earlier work, collected in patent publication US7517878B2, “Heteroarylaminopyrazole derivatives useful for the treatment of diabetes” (Bayer Pharamceuticals Corporation, priority 2004, dated 2009).

System: INS-1 cells
Settings: INS-1 cells maintained in the presence of beta-mercaptoethanol; Hohmeier, et al., Diabetes 49:424, 2002; read-out: EC50 of insulin secretion in response to glucose

In the case of `O=C[C@H](O)[C@@H](O)[C@H](O)[C@H](O)CO` [glucose], the EC50 is listed as 6 mM.
